Assay results reported in patent US20050009924A1 (priority 2003, published 2005).

How the values were obtained:
human hepatoma G2 cells = assay: Cytotoxicity assay (XTT colorimetric), Hep G2; type: cell-based; details: Homo sapiens, HepG2; 48 h of drug exposure
rat glioma C6 cells = assay: Cytotoxicity assay (XTT colorimetric), C6 cells; type: cell-based; details: Rattus norvegicus, C6; 48 h of drug exposure
[1] = system: hepatitis B virus transfected hepatoma cell lines, HepG 2.2.15 cells; assay: Cytotoxicity assay, 2.2.15 cells; type: cell-based, human; details: Homo sapiens, HepG2.2.15; 48 h of drug exposure
[2] = system: transcriptional activity of hTERT; assay: SEAP reporter assay of hTERT expression, PhTERT-SEAP (hTERT-BJ1); type: cell-based, human
Method in brief: (§1)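 Drug exposure: varying amounts, 24 h, following 24 h culture at 37° C and fresh medium. Media heat-inactivated (65° C, 10 min) to remove endogenous phosphatases, then combined 1:1 with diethanolamine/MgCl2/homoarginine buffer and 12 mM p-nitrophenyl phosphate; A405 slope recorded.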

[3] = system: transcriptional activity of hTERT; assay: SEAP reporter assay of hTERT expression, PhTERT-SEAP (H1299); type: cell-based, human
Method in brief: as §1

[4] = MTT relative viability, PhTERT-SEAP (H1299) cells; details: human
Description: The tetrazolium reagent (MTT; 3-(4,5-di-methylthiazol)-2,5-diphenyl tetrazolium bromide, USB) was designed to yield a colored formazan upon metabolic reduction by viable cells. Approximately […] cells were plated onto each well of a 96-well plate and incubated in 5% CO2 at 37° C. for 24 h. To assess the in vitro cytotoxicity, each compound was dissolved in DMSO and prepared immediately before the experiments and was diluted into the complete medium before addition to cell cultures. Test compounds were then added to the culture medium for designated various concentrations. After 48 h, an amount of 25 μL of MTT was added to each well, and the samples were incubated at 37° C. for 4 h. A 100 μL solution of lysis buffer containing 20% SDS and 50% N,N-dimethylformamide was added to each well and incubated at 37° C. for another 16 h. The absorbency at 550 nm was measured using an ELISA reader.
Non small lung cancer cells H1299 (telomerase positive) were grown in RPMI 1640 media supplemented with 10% fetal bovine serum, 100 units/mL penicillin and 100 mg/mL streptomycin in a humidified atmosphere with 5% CO2 at 37° C. The hTERT immortalized hTERT-BJ1 (BD Biosciences Clontech)^39 were grown in DMEM media supplemented with 10% fetal calf serum, 100 units/mL penicillin and 100 mg/mL streptomycin, 1 mM sodium pyruvate, and 4 mM I-arginine in a humidified atmosphere with 5% CO2 at 37° C. Culture media were changed every 3 days. […] The stable clones derived from H1299 or hTERT-BJ1 were cultured using conditions that are similar to their parental cells.

[5] = MTT relative viability, PhTERT-SEAP (hTERT-BJ1) cells; details: human
[6] = 2.3 μM, PhTERT-SEAP (hTERT-BJ1)
[7] = 238 μM, PhTERT-SEAP (hTERT-BJ1)
[8] = Homo sapiens, 2.3 μM, PhTERT-SEAP (hTERT-BJ1), read-out: Relative SEAP activity (%)
[9] = Homo sapiens, 23 μM, PhTERT-SEAP (hTERT-BJ1), read-out: Relative SEAP activity (%)
[10] = Homo sapiens, 238 μM, PhTERT-SEAP (hTERT-BJ1), read-out: Relative SEAP activity (%)
[11] = 2.3 μM, PhTERT-SEAP(hTERT-H1299)
[12] = 23 μM, PhTERT-SEAP(hTERT-H1299)
[13] = 238 μM, PhTERT-SEAP(hTERT-H1299)
[14] = Homo sapiens, NCI-H1299, 2.3 μM, PhTERT-SEAP(hTERT-H1299), read-out: Relative SEAP activity (%)
[15] = Homo sapiens, NCI-H1299, 23 μM, PhTERT-SEAP(hTERT-H1299), read-out: Relative SEAP activity (%)
[16] = Homo sapiens, NCI-H1299, 238 μM, PhTERT-SEAP(hTERT-H1299), read-out: Relative SEAP activity (%)
[17] = hTERT-BJ1 cells, stable PhTERT-SEAP reporter clone

Structure (SMILES): CC(Cl)C(=O)Nc1ccc(NC(=O)C(C)Cl)c2c1C(=O)c1ccccc1C2=O (stereo not drawn) [VI9, 1,4-Bis(2-chloropropionamido)-9,10-anthracenedione]
- IC50 (human hepatoma G2 cells): > 20 µM
- IC50 (rat glioma C6 cells): > 20 µM
- IC50 [1]: > 20 µM
- SEAP/vibility [2, 6]: 0.97
- SEAP/vibility ([2]; 23 μM, PhTERT-SEAP (hTERT-BJ1)): 1.49
- SEAP/vibility [2, 7]: 1.68
- activity at 2.3 µM [2, 8]: 91 ± 10.8%
- activity at 23 µM [2, 9]: 101 ± 8.4%
- activity at 238 µM [2, 10]: 81 ± 8.5%
- SEAP/vibility [3, 11]: 0.96
- SEAP/vibility [3, 12]: 1.40
- SEAP/vibility [3, 13]: 7.82
- activity at 2.3 µM [3, 14]: 106 ± 5.5%
- activity at 23 µM [3, 15]: 109 ± 1%
- activity at 238 µM [3, 16]: 85 ± 5.3%
- melting point: 233 to 235 °C
- viability at 48 h, 2.3 µM [4]: 111 ± 5.5%
- viability at 48 h, 23 µM [4]: 77 ± 3.4%
- viability at 48 h, 238 µM [4]: 11 ± 1.4%
- viability at 48 h, 2.3 µM [5, 17]: 94 ± 10.4%
- viability at 48 h, 23 µM [5, 17]: 68 ± 8.2%
- viability at 48 h, 238 µM [5, 17]: 48 ± 2.3%

Structure (SMILES): O=C(CCCl)Nc1ccc(NC(=O)CCCl)c2c1C(=O)c1ccccc1C2=O [VI7, 1,4-Bis(3-chloropropionamido)-9,10-anthracenedione]
- IC50 (human hepatoma G2 cells): > 20 µM
- IC50 (rat glioma C6 cells): > 20 µM
- IC50 [1]: > 20 µM
- SEAP/vibility [2, 6]: 0.36
- SEAP/vibility ([2]; 23 μM, PhTERT-SEAP (hTERT-BJ1)): 0.48
- SEAP/vibility [2, 7]: 0.23
- activity at 2.3 µM [2, 8]: 36 ± 12.1%
- activity at 23 µM [2, 9]: 40 ± 10.8%
- activity at 238 µM [2, 10]: 14 ± 11.8%
- SEAP/vibility [3, 11]: 0.88
- SEAP/vibility [3, 12]: 1.28
- SEAP/vibility [3, 13]: 2.30
- activity at 2.3 µM [3, 14]: 87 ± 2.3%
- activity at 23 µM [3, 15]: 87 ± 3.1%
- activity at 238 µM [3, 16]: 68 ± 5.3%
- melting point: 230 to 231 °C
- viability at 48 h, 2.3 µM [4]: 99 ± 6%
- viability at 48 h, 23 µM [4]: 68 ± 2.4%
- viability at 48 h, 238 µM [4]: 30 ± 3.8%
- viability at 48 h, 2.3 µM [5, 17]: 102 ± 4.1%
- viability at 48 h, 23 µM [5, 17]: 82 ± 8.2%
- viability at 48 h, 238 µM [5, 17]: 60 ± 2.5%

Structure (SMILES): O=C(Cc1ccc(F)cc1)Nc1ccc(NC(=O)Cc2ccc(F)cc2)c2c1C(=O)c1ccccc1C2=O [VI32, 1,4-Bis(4-fluorophenylacetamido)-9,10-anthracenedione]
- IC50 (human hepatoma G2 cells): > 20 µM
- IC50 (rat glioma C6 cells): > 20 µM
- IC50 [1]: > 20 µM
- SEAP/vibility ([2]; 1.9 μM, PhTERT-SEAP (hTERT-BJ1)): 0.84
- SEAP/vibility ([2]; 19 μM, PhTERT-SEAP (hTERT-BJ1)): 1.02
- SEAP/vibility ([2]; 195 μM, PhTERT-SEAP (hTERT-BJ1)): 1.01
- activity at 1.9 µM ([2]; Homo sapiens, 1.9 μM, PhTERT-SEAP (hTERT-BJ1), read-out: Relative SEAP activity (%)): 90 ± 18.4%
- activity at 19 µM ([2]; Homo sapiens, 19 μM, PhTERT-SEAP (hTERT-BJ1), read-out: Relative SEAP activity (%)): 102 ± 20%
- activity at 195 µM ([2]; Homo sapiens, 195 μM, PhTERT-SEAP (hTERT-BJ1), read-out: Relative SEAP activity (%)): 97 ± 11.6%
- SEAP/vibility ([3]; 1.9 μM, PhTERT-SEAP(hTERT-H1299)): 1.00
- SEAP/vibility ([3]; 19 μM, PhTERT-SEAP(hTERT-H1299)): 1.03
- SEAP/vibility ([3]; 195 μM, PhTERT-SEAP(hTERT-H1299)): 1.39
- activity at 1.9 µM ([3]; Homo sapiens, NCI-H1299, 1.9 μM, PhTERT-SEAP(hTERT-H1299), read-out: Relative SEAP activity (%)): 109 ± 10.8%
- activity at 19 µM ([3]; Homo sapiens, NCI-H1299, 19 μM, PhTERT-SEAP(hTERT-H1299), read-out: Relative SEAP activity (%)): 109 ± 5.8%
- activity at 195 µM ([3]; Homo sapiens, NCI-H1299, 195 μM, PhTERT-SEAP(hTERT-H1299), read-out: Relative SEAP activity (%)): 109 ± 6.6%
- melting point: 228 to 230 °C
- viability at 48 h, 1.9 µM [4]: 108 ± 8.8%
- viability at 48 h, 19 µM [4]: 107 ± 7.5%
- viability at 48 h, 195 µM [4]: 78 ± 8%
- viability at 48 h, 1.9 µM [5, 17]: 107 ± 7.2%
- viability at 48 h, 19 µM [5, 17]: 100 ± 6.3%
- viability at 48 h, 195 µM [5, 17]: 96 ± 4.1%

Structure (SMILES): O=C1c2cccc(NCCc3ccccc3)c2C(=O)c2cccc(NCCc3ccccc3)c21 [IVs, 1,5-Bis(phenylethylamino)-anthraquinone]
- IC50 (human hepatoma G2 cells): > 20 µM
- IC50 (rat glioma C6 cells): > 20 µM
- IC50 [1]: > 20 µM
- activity at 2.2 µM ([2]; Homo sapiens, 2.2 μM, hTERT-BJ1, read-out: Relative SEAP activity (%)): 115 ± 12.9%
- activity at 22 µM ([2]; Homo sapiens, 22 μM, hTERT-BJ1, read-out: Relative SEAP activity (%)): 103 ± 12.3%
- activity at 223 µM ([2]; Homo sapiens, 223 μM, hTERT-BJ1, read-out: Relative SEAP activity (%)): 133 ± 23.8%
- activity at 2.2 µM ([3]; Homo sapiens, NCI-H1299, 2.2 μM, hTERT-H1299, read-out: Relative SEAP activity (%)): 105 ± 3%
- activity at 22 µM ([3]; Homo sapiens, NCI-H1299, 22 μM, hTERT-H1299, read-out: Relative SEAP activity (%)): 103 ± 9.5%
- activity at 223 µM ([3]; Homo sapiens, NCI-H1299, 223 μM, hTERT-H1299, read-out: Relative SEAP activity (%)): 96 ± 2.9%
- melting point: 205 to 207 °C
- viability at 48 h, 2.2 µM [4]: 94 ± 5.2%
- viability at 48 h, 22 µM [4]: 97 ± 3.2%
- viability at 48 h, 223 µM [4]: 77 ± 4.2%
- viability at 48 h, 2.2 µM [5]: 97 ± 4%
- viability at 48 h, 22 µM [5]: 92 ± 1%
- viability at 48 h, 223 µM [5]: 81 ± 4.7%

Structure (SMILES): CCNc1cccc2c1C(=O)c1cccc(NCC)c1C2=O [IVa, 1,5-Bis(ethylamino)anthraquinone]
- IC50 (human hepatoma G2 cells): > 20 µM
- IC50 (rat glioma C6 cells): > 20 µM
- IC50 [1]: > 20 µM
- activity at 3.3 µM ([2]; Homo sapiens, 3.3 μM, hTERT-BJ1, read-out: Relative SEAP activity (%)): 94 ± 17.4%
- activity at 33 µM ([2]; Homo sapiens, 33 μM, hTERT-BJ1, read-out: Relative SEAP activity (%)): 96 ± 8.5%
- activity at 339 µM ([2]; Homo sapiens, 339 μM, hTERT-BJ1, read-out: Relative SEAP activity (%)): 66 ± 11.8%
- activity at 3.3 µM ([3]; Homo sapiens, NCI-H1299, 3.3 μM, hTERT-H1299, read-out: Relative SEAP activity (%)): 108 ± 6.3%
- activity at 33 µM ([3]; Homo sapiens, NCI-H1299, 33 μM, hTERT-H1299, read-out: Relative SEAP activity (%)): 101 ± 6.8%
- activity at 339 µM ([3]; Homo sapiens, NCI-H1299, 339 μM, hTERT-H1299, read-out: Relative SEAP activity (%)): 95 ± 11%
- melting point: 193 to 195 °C
- viability at 48 h, 3.3 µM [4]: 106 ± 7.4%
- viability at 48 h, 33 µM [4]: 104 ± 3.7%
- viability at 48 h, 339 µM [4]: 103 ± 6.4%
- viability at 48 h, 3.3 µM [5]: 100 ± 4.8%
- viability at 48 h, 33 µM [5]: 97 ± 1%
- viability at 48 h, 339 µM ([5]; hTERT-BJ1 cells): 99 ± 3.2%

Structure (SMILES): CC(C)Nc1cccc2c1C(=O)c1cccc(NC(C)C)c1C2=O [IVc, 1,5-Bis(isopropylamino)anthraquinone]
- IC50 (human hepatoma G2 cells): 7.64 ± 2.38 µM
- IC50 (rat glioma C6 cells): > 20 µM
- IC50 [1]: 19 µM
- activity at 3.1 µM ([2]; Homo sapiens, 3.1 μM, hTERT-BJ1, read-out: Relative SEAP activity (%)): 32 ± 18.3%
- activity at 31 µM ([2]; Homo sapiens, 31 μM, hTERT-BJ1, read-out: Relative SEAP activity (%)): 23 ± 20.5%
- activity at 310 µM ([2]; Homo sapiens, 310 μM, hTERT-BJ1, read-out: Relative SEAP activity (%)): -2%
- activity at 3.1 µM ([3]; Homo sapiens, NCI-H1299, 3.1 μM, hTERT-H1299, read-out: Relative SEAP activity (%)): 94 ± 4.1%
- activity at 31 µM ([3]; Homo sapiens, NCI-H1299, 31 μM, hTERT-H1299, read-out: Relative SEAP activity (%)): 93 ± 2%
- activity at 310 µM ([3]; Homo sapiens, NCI-H1299, 310 μM, hTERT-H1299, read-out: Relative SEAP activity (%)): 66 ± 4.7%
- melting point: 170 to 172 °C
- viability at 48 h, 3.1 µM [4]: 114 ± 7.6%
- viability at 48 h, 31 µM [4]: 111 ± 4.7%
- viability at 48 h, 310 µM [4]: 50 ± 7.5%
- viability at 48 h, 3.1 µM ([5]; hTERT-BJ1 cells): 101 ± 4.5%
- viability at 48 h, 31 µM ([5]; hTERT-BJ1 cells): 93 ± 6.5%
- viability at 48 h, 310 µM ([5]; hTERT-BJ1 cells): 98 ± 12.9%
